Nc1ccc(Cc2ccc(N)cc2)cc1
solubility (mole fraction)
Details | 293.15 K | 298.15 K | 303.15 K | 308.15 K | 313.15 K | 318.15 K | 323.15 K | 328.15 K | 333.15 K
in benzene | 0.0207 | 0.0299 | 0.039 | 0.0499 | 0.066 | 0.0865 | 0.114 | – | –
in chloroform | 0.123 | 0.142 | 0.165 | 0.197 | 0.23 | 0.269 | 0.306 | – | –
in ethanol | 0.0335 | 0.0461 | 0.0637 | 0.0842 | 0.11 | 0.15 | 0.198 | 0.267 | –
in isopropanol | 0.011 | 0.0136 | 0.0178 | 0.0236 | 0.0312 | 0.0411 | 0.0536 | 0.0696 | 0.0898
in methanol | 0.127 | 0.157 | 0.187 | 0.219 | 0.259 | 0.3 | 0.347 | 0.403 | –
in n-butanol | 0.0187 | 0.0231 | 0.0296 | 0.0371 | 0.0476 | 0.0582 | 0.0713 | 0.0885 | 0.108
in toluene | 0.0156 | 0.0195 | 0.0244 | 0.03 | 0.038 | 0.0487 | 0.0599 | 0.075 | 0.0932
